Test results taken from US11214803B2, “Modulators of YAP1 expression” (Ionis Pharmaceuticals, Inc., priority 2019, dated 2022).

Columns and labels:
Yap1 mRNA [1] = test: Dose-dependent inhibition of human Yap1 in SNU-449 cells (Example 9, RTS36584); type: cell-based; conditions: free uptake; for % UTC (Yap1 mRNA): approximately 48 hours; for IC50: linear regression on a log/linear plot
Outline: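 Read-out was Yap1 mRNA (primer-probe RTS36584) normalised to total RNA by RIBOGREEN, given as % of untreated cells, with IC50 fitted by linear regression of log/linear data. Oligonucleotides were dosed by free uptake to SNU-449 cells, 10,000/well, for ~48 h.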

[2] = Tolerability in Sprague-Dawley rats, plasma chemistry markers (Example 22); type: in vivo; conditions: male Sprague-Dawley rats, 50 mg/kg s.c. weekly for 6 weeks (7 doses), 48 hours after last dose
Protocol: Sprague-Dawley rats are a multipurpose model used for safety and efficacy evaluations. The rats were treated with Ionis modified oligonucleotides from the studies described in the Examples above and evaluated for changes in the levels of various plasma chemistry markers.

Yap1 mRNA [3] = test: Dose-dependent inhibition of human Yap1 in A-431 cells (Example 24, 11,000 cells per well, RTS36584, normalized to GAPDH); type: cell-based; conditions: free uptake, 48 hours; for Yap1 mRNA, % UTC: RTS36584, normalized to GAPDH
Protocol: Modified oligonucleotides described in the studies above were tested at various doses in A-431 cells. Cultured A-431 cells at a density of 11,000 cells per well were treated using free uptake with modified oligonucleotides diluted to concentrations described in the tables below. After approximately 48 hours, Yap1 mRNA levels were measured as previously described using the Human Yap1 primer-probe set RTS36584. Yap1 mRNA levels were normalized to GAPDH content, as measured by primer probe set RTS104 (forward sequence […], designated herein as SEQ ID NO.: 17; reverse sequence […], designated herein as SEQ ID NO.: 18; probe sequence […], designated herein as SEQ ID NO.: 19). Results are presented in the tables below as percent control of the amount of Yap1 mRNA relative to untreated control cells (% UTC). IC50s were calculated using a linear regression on a log/linear plot of the data in excel.

Yap1 mRNA [4] = test: Inhibition of human Yap1 mRNA in epidermoid carcinoma A-431 xenograft tumors (Example 27); type: in vivo; conditions: A-431 xenografts in NCr-Foxn1nu mice, 6-8 hours post final dose, relative to PBS
Protocol: An epidermoid carcinoma A-431 xenograft tumor model was used to evaluate activity of modified oligonucleotides targeted to human Yap1. Five million A-431 cells in 30% matrigel were implanted subcutaneously into the flanks of female NCr-Foxn1nu mice (from Taconic) at 4-6 weeks of age. When tumors reached an average volume of 40 mm^3, approximately two weeks post-implantation, groups of four mice each were administered at either 25 mg/kg or 50 mg/kg daily with modified oligonucleotides for […] (5 doses). Tumors were collected 6-8 hours post final dose and tested for Yap1 mRNA knockdown by RT-qPCR. Yap1 mRNA levels were measured as previously described using the Human Yap1 primer-probe set RTS4814. Yap1 mRNA levels were normalized to actin-beta content, as measured by primer probe set RTS5002. Results are presented in the tables below as percent control of the amount of Yap1 mRNA relative to PBS treated animals (% control).

[5] = Cynomolgus monkey tolerability, body and organ weight measurements (Example 34); type: in vivo; conditions: cynomolgus monkeys, 35 mg/kg subcutaneously; for Heart weight / Kidney weight / Liver with gallbladder weight / Spleen weight: necropsy; for Terminal Body Weight: prior to necropsy
Outline: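 Monkeys given modified oligonucleotides, observed twice daily, and euthanized on day 86, about 48 h after the last dose. Terminal body weight taken before necropsy; organ weights measured.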

[6] = Cynomolgus monkey tolerability, coagulation (Example 34); type: in vivo; conditions: cynomolgus monkeys, 35 mg/kg subcutaneously, day 44
Protocol: To evaluate effect of Ionis modified oligonucleotides on coagulation in cynomolgus monkeys, blood samples of approximately 0.9 mL were collected from each of the available study animals on day 44. The samples were collected in tubes containing 3.2% sodium citrate. Coagulation parameters tested include Activated partial thromboplastin time (APTT), prothrombin time (PT) and Figrinogen (FIB).

[7] = cynomolgus monkey, in vivo, sc, 35 mg/kg
Protocol: (§1) Prior to the study, the monkeys were kept in quarantine during which the animals were observed daily for general health. The monkeys were 2-4 years old and weighed 2-4 kg. Eleven groups of 4 randomly assigned male cynomolgus monkeys each were injected subcutaneously with Ionis oligonucleotide or saline in a clock-wise rotation between four different sites on the back. Following loading doses on days 1, 3, 5 and 7, the monkeys were dosed once per week (on days 14, 21, 28, 35, and 42) with 35 mg/kg of Ionis oligonucleotide.
(§2) To evaluate the effect of Ionis oligonucleotides on hepatic and kidney function, blood samples were collected from all the study groups on day 44. The monkeys were fasted overnight prior to blood collection. Blood was collected in tubes without anticoagulant for serum separation. The tubes were kept at room temperature for a minimum of 90 minutes and then centrifuged at 3000 rpm for 10 minutes to obtain serum. Levels of various liver function markers were measured using a Toshiba 200FR NEO chemistry analyzer (Toshiba Co., Japan).

[8] = Cynomolgus monkey tolerability, kidney and liver function markers (Example 34); conditions: cynomolgus monkeys, 35 mg/kg subcutaneously, day 44
Protocol: as §1, §2

Substance | % UTC (Yap1 mRNA) (Yap1 mRNA [1]; 31.3 nM) [% UTC] | % UTC (Yap1 mRNA) (Yap1 mRNA [1]; 125.0 nM) [% UTC] | % UTC (Yap1 mRNA) (Yap1 mRNA [1]; 500.0 nM) [% UTC] | % UTC (Yap1 mRNA) (Yap1 mRNA [1]; 2000.00 nM) [% UTC] | IC50 (Yap1 mRNA [1]) [nM] | ALT [2] [U/L] | AST [2] [U/L] | BUN [2] [mg/dL] | TBIL [2] [mg/dL] | Yap1 mRNA, % UTC (Yap1 mRNA [3]; 0.002 μM) [% UTC] | Yap1 mRNA, % UTC (Yap1 mRNA [3]; 0.008 μM) [% UTC] | Yap1 mRNA, % UTC (Yap1 mRNA [3]; 0.04 μM) [% UTC] | Yap1 mRNA, % UTC (Yap1 mRNA [3]; 0.2 μM) [% UTC] | Yap1 mRNA, % UTC (Yap1 mRNA [3]; 1 μM) [% UTC] | Yap1 mRNA in tumors, % control (Yap1 mRNA [4]; 25 mpk daily (5 doses)) [% control] | Yap1 mRNA in tumors, % control (Yap1 mRNA [4]; 50 mpk daily (5 doses)) [% control] | Heart weight [5] [g] | Kidney weight [5] [g] | Liver with gallbladder weight [5] [g] | Spleen weight [5] [g] | also measured
1198831 (CACTTTTACATTAGGA; chemically modified gapmer, further chemistry not given here) [compound 1198831] | 74 | 33 | 10 | 4 | 100 | 54 | 69 | 23 | 0.20 | 2 | 6 | 28 | 72 | 83 | 47 | 37 | 11 | 14 | 65 | 4 | Terminal Body Weight [5]: 2788 g; APTT [6]: 18 s; FIB [6]: 209 mg/dL; PT [6]: 10 s; A/G ratio [7]: 1.4; ALB [8]: 3.9 g/dL; ALP [8]: 1096 IU/L; ALT [8]: 48 IU/L; AST [8]: 63 IU/L; BUN [8]: 26 mg/dL; CREA [8]: 0.7 mg/dL; GGT [8]: 65 IU/L; GLO [8]: 2.8 g/dL; GLU [8]: 73 mg/dL; HDL [8]: 108 mg/dL; LDL [8]: 63 mg/dL; TBIL [8]: 0.3 mg/dL; TG [8]: 22 mg/dL; TP [8]: 6.7 g/dL
1198728 (TATTAGAGTATGTGGC; modified gapmer, further chemistry not given here) [compound 1198728] | 51 | 28 | 9 | 3 | < 30 | 54 | 71 | 22 | 0.18 | 1 | 4 | 27 | 85 | 87 | 47 | 39 | 10 | 15 | 65 | 5 | IC50 (Yap1 mRNA [3]; linear regression on a log/linear plot): 20 nM; Terminal Body Weight [5]: 2722 g; APTT [6]: 18 s; FIB [6]: 242 mg/dL; PT [6]: 9 s; A/G ratio [7]: 1.3; ALB [8]: 4.1 g/dL; ALP [8]: 1165 IU/L; ALT [8]: 58 IU/L; AST [8]: 92 IU/L; BUN [8]: 26 mg/dL; CREA [8]: 0.9 mg/dL; GGT [8]: 59 IU/L; GLO [8]: 3.2 g/dL; GLU [8]: 95 mg/dL; HDL [8]: 95 mg/dL; LDL [8]: 57 mg/dL; TBIL [8]: 0.3 mg/dL; TG [8]: 24 mg/dL; TP [8]: 7.3 g/dL
